Patent US20050118244A1, “Transmittal therapeutic systems containing steroid hormones and propylene glycol monocaprylate” (LTS Lohmann Therapie-System AG, priority 2001, published 2005)

Test: Flux of active ingredient from transdermal therapeutic system in modified Franz diffusion cell
Type: in vitro ADME, human
Settings: for Cumulative amount of active ingredient after 3 days: human epidermis, 32° C.
Protocol: The measurements were carried out as follows: a modified Franz diffusion cell and, in each case, a transdermal therapeutic system with an effective diffusion area of 4.1 cm^2 was used. The test temperature was 32° C. The flux of active ingredient was measured on an epidermis from human skin. The acceptor used was an aqueous solution of 0.1% hydroxypropyl-β-cyclodextrin+0.1% NaN3; the acceptor volume was 9 ml (volume exchange after 32, 48, 56 and 72 hours).

Row | SMILES | Cumulative amount of active ingredient after 3 days (TTS formula: Progestogen (Org 30659) 5.0 % by weight, Durotak 2287 90.0 %, propylene glycol monocaprylate 5.0 %) [μg/cm^2] | Cumulative amount of active ingredient after 3 days (TTS formula: Progestogen (Org 30659) 5.0 % by weight, Durotak 2287 95.0 %, no penetration promoter) [μg/cm^2] | Cumulative amount of active ingredient after 3 days (TTS formula: Testosterone 2.0 % by weight, Durotak 2287 93.0 %, propylene glycol monocaprylate 5.0 %) [μg/cm^2] | Cumulative amount of active ingredient after 3 days (TTS formula: Testosterone 2.0 % by weight, Durotak 2287 98.0 %, no penetration promoter) [μg/cm^2] | Increase of the flux of active ingredient on use of 5% propylene glycol monocaprylate (TTS with 5% propylene glycol monocaprylate versus TTS without, Examples 1 and 2)
1 | C#C[C@]1(O)C=C[C@H]2[C@@H]3CCC4=CC(=O)CC[C@@H]4[C@H]3C(=C)C[C@@]21C [Progestogen (Org 30659), (17α)-17-hydroxy-11-methylene-19-norpregna-4,15-dien-20-yn-3-one] | 51.3 | 44.7 | – | – | –
2 | C[C@]12CC[C@H]3[C@@H](CCC4=CC(=O)CC[C@@]43C)[C@@H]1CC[C@@H]2O [Testosterone, testosterone] | – | – | 36.2 | 30.2 | about 20%
